From PubChem BioAssay AID2060886 (Molecular Pharmacology Branch, DTP, NCI, 2025)

Tested on: 653999-131-R-J2-PDC complex spheroids, growth inhibition
Test: Anticancer human tumor 653999-131-R-J2-PDC patient-derived lung adenocarcinoma cell line growth inhibition [RAS]
Details: for viability, T/C: stronger effect = lower value
How it was run: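 Agents were tested in combination matrices in half-log decrements from a top concentration at or near clinical Cmax (10 microM if undetermined). Targets were multi-cell spheroids of tumour lines plus HUVEC and MSC stromal cells.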

[1] = curve of first compound, second compound 0.0316 µM
[2] = curve of first compound, second compound 0.1 µM
[3] = curve of first compound, second compound 0.316 µM
[4] = curve of first compound, second compound 1 µM
[5] = curve of first compound, second compound 3.16 µM
[6] = curve of first compound, second compound 10 µM
[7] = second compound 0.0316 µM, first compound 0.0316 µM
[8] = second compound 0.0316 µM, first compound 0.1 µM
[9] = second compound 0.0316 µM, first compound 0.316 µM
[10] = second compound 0.0316 µM, first compound 1 µM
[11] = second compound 0.0316 µM, first compound 3.16 µM
[12] = second compound 0.0316 µM, first compound 10 µM
[13] = second compound 0.1 µM, first compound 0.0316 µM
[14] = second compound 0.1 µM, first compound 0.1 µM
[15] = second compound 0.1 µM, first compound 0.316 µM
[16] = second compound 0.1 µM, first compound 1 µM
[17] = second compound 0.1 µM, first compound 3.16 µM
[18] = second compound 0.1 µM, first compound 10 µM
[19] = second compound 0.316 µM, first compound 0.0316 µM
[20] = second compound 0.316 µM, first compound 0.1 µM
[21] = second compound 0.316 µM, first compound 0.316 µM
[22] = second compound 0.316 µM, first compound 1 µM
[23] = second compound 0.316 µM, first compound 3.16 µM
[24] = second compound 0.316 µM, first compound 10 µM
[25] = second compound 1 µM, first compound 0.0316 µM
[26] = second compound 1 µM, first compound 0.1 µM
[27] = second compound 1 µM, first compound 0.316 µM
[28] = second compound 1 µM, first compound 1 µM
[29] = second compound 1 µM, first compound 3.16 µM
[30] = second compound 1 µM, first compound 10 µM
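Further: spheroids exposed to the agents for seven days before the readout.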

Structure (SMILES): CCc1c2c(nc3ccc(O)cc13)-c1cc3c(c(=O)n1C2)COC(=O)[C@]3(O)CC + C#Cc1c(F)ccc2cc(O)cc(-c3ncc4c(N5CC6CCC(C5)N6)nc(OCC56CCCN5CC(F)C6)nc4c3F)c12
- IC50 [1]: 7.6 nM
- IC50 [2]: 7.98 nM
- IC50 [3]: 1.67 nM
- IC50 [4]: < 0.949 nM
- IC50 [5]: < 0.949 nM
- IC50 [6]: < 0.949 nM
- viability, T/C (second compound 0.0316 µM, first compound 0.000949 µM): 85.8%
- viability, T/C (second compound 0.0316 µM, first compound 0.003 µM): 68.4%
- viability, T/C (second compound 0.0316 µM, first compound 0.00949 µM): 43.6%
- viability, T/C (second compound 0.0316 µM, first compound 0.03 µM): 30.7%
- viability, T/C (second compound 0.0316 µM, first compound 0.0949 µM): 24.1%
- viability, T/C (second compound 0.0316 µM, first compound 0.3 µM): 14.2%
- viability, T/C (second compound 0.1 µM, first compound 0.000949 µM): 83.9%
- viability, T/C (second compound 0.1 µM, first compound 0.003 µM): 58.7%
- viability, T/C (second compound 0.1 µM, first compound 0.00949 µM): 48.4%
- viability, T/C (second compound 0.1 µM, first compound 0.03 µM): 35.2%
- viability, T/C (second compound 0.1 µM, first compound 0.0949 µM): 22.9%
- viability, T/C (second compound 0.1 µM, first compound 0.3 µM): 12.2%
- viability, T/C (second compound 0.316 µM, first compound 0.000949 µM): 57.5%
- viability, T/C (second compound 0.316 µM, first compound 0.003 µM): 41.4%
- viability, T/C (second compound 0.316 µM, first compound 0.00949 µM): 32.2%
- viability, T/C (second compound 0.316 µM, first compound 0.03 µM): 23.5%
- viability, T/C (second compound 0.316 µM, first compound 0.0949 µM): 17.5%
- viability, T/C (second compound 0.316 µM, first compound 0.3 µM): 13.3%
- viability, T/C (second compound 1 µM, first compound 0.000949 µM): 40.3%
- viability, T/C (second compound 1 µM, first compound 0.003 µM): 26.4%
- viability, T/C (second compound 1 µM, first compound 0.00949 µM): 21.4%
- viability, T/C (second compound 1 µM, first compound 0.03 µM): 20.2%
- viability, T/C (second compound 1 µM, first compound 0.0949 µM): 15.1%
- viability, T/C (second compound 1 µM, first compound 0.3 µM): 20.8%
- viability, T/C (second compound 3.16 µM, first compound 0.000949 µM): 39.2%
- viability, T/C (second compound 3.16 µM, first compound 0.003 µM): 21.2%
- viability, T/C (second compound 3.16 µM, first compound 0.00949 µM): 16.6%
- viability, T/C (second compound 3.16 µM, first compound 0.03 µM): 11.6%
- viability, T/C (second compound 3.16 µM, first compound 0.0949 µM): 9.96%
- viability, T/C (second compound 3.16 µM, first compound 0.3 µM): 7.39%
- viability, T/C (second compound 10 µM, first compound 0.000949 µM): 26.8%
- viability, T/C (second compound 10 µM, first compound 0.003 µM): 17.8%
- viability, T/C (second compound 10 µM, first compound 0.00949 µM): 12.5%
- viability, T/C (second compound 10 µM, first compound 0.03 µM): 9.45%
- viability, T/C (second compound 10 µM, first compound 0.0949 µM): 7.29%
- viability, T/C (second compound 10 µM, first compound 0.3 µM): 4.35%

Structure (SMILES): CC(C)NCC(C(=O)N1CCN(c2ncnc3c2C(C)CC3O)CC1)c1ccc(Cl)cc1 (stereo unspecified) + C#Cc1c(F)ccc2cc(O)cc(-c3ncc4c(N5CC6CCC(C5)N6)nc(OCC56CCCN5CC(F)C6)nc4c3F)c12
- IC50 [1]: 1220 nM
- IC50 [2]: 593 nM
- IC50 [3]: 190 nM
- IC50 [4]: 84.5 nM
- IC50 [5]: < 31.6 nM
- IC50 [6]: < 31.6 nM
- viability, T/C [7]: 109%
- viability, T/C [8]: 84.2%
- viability, T/C [9]: 72%
- viability, T/C [10]: 53.6%
- viability, T/C [11]: 35%
- viability, T/C [12]: 28.9%
- viability, T/C [13]: 97.6%
- viability, T/C [14]: 55.7%
- viability, T/C [15]: 70.4%
- viability, T/C [16]: 43.6%
- viability, T/C [17]: 37.6%
- viability, T/C [18]: 32.1%
- viability, T/C [19]: 56.5%
- viability, T/C [20]: 62.6%
- viability, T/C [21]: 38.8%
- viability, T/C [22]: 38.9%
- viability, T/C [23]: 26.2%
- viability, T/C [24]: 20.5%
- viability, T/C [25]: 64.7%
- viability, T/C [26]: 40.8%
- viability, T/C [27]: 45%
- viability, T/C [28]: 21%
- viability, T/C [29]: 19.4%
- viability, T/C [30]: 14%
- viability, T/C (second compound 3.16 µM, first compound 0.0316 µM): 36.9%
- viability, T/C (second compound 3.16 µM, first compound 0.1 µM): 43.9%
- viability, T/C (second compound 3.16 µM, first compound 0.316 µM): 27.9%
- viability, T/C (second compound 3.16 µM, first compound 1 µM): 19%
- viability, T/C (second compound 3.16 µM, first compound 3.16 µM): 12.7%
- viability, T/C (second compound 3.16 µM, first compound 10 µM): 9.87%
- viability, T/C (second compound 10 µM, first compound 0.0316 µM): 23.3%
- viability, T/C (second compound 10 µM, first compound 0.1 µM): 23.3%
- viability, T/C (second compound 10 µM, first compound 0.316 µM): 22.8%
- viability, T/C (second compound 10 µM, first compound 1 µM): 14.1%
- viability, T/C (second compound 10 µM, first compound 3.16 µM): 9.37%
- viability, T/C (second compound 10 µM, first compound 10 µM): 5.49%

Structure (SMILES): CC(Nc1ccc2c(c1)OCCn1cc(N3C(=O)OCC3C(F)F)nc1-2)C(N)=O (stereo unspecified) + C=CC(=O)N1CCN(c2nc(OCC3CCCN3C)nc3c(F)c(-c4nc(N)cc(C)c4C(F)(F)F)c(Cl)cc23)C(C)C1
- IC50 (curve of first compound, second compound 0.00316 µM): 645 nM
- IC50 (curve of first compound, second compound 0.01 µM): 717 nM
- IC50 [1]: 636 nM
- IC50 [2]: 1160 nM
- IC50 [3]: 536 nM
- IC50 [4]: 571 nM
- viability, T/C (second compound 0.00316 µM, first compound 0.0316 µM): 111%
- viability, T/C (second compound 0.00316 µM, first compound 0.1 µM): 75.6%
- viability, T/C (second compound 0.00316 µM, first compound 0.316 µM): 55.9%
- viability, T/C (second compound 0.00316 µM, first compound 1 µM): 51.5%
- viability, T/C (second compound 0.00316 µM, first compound 3.16 µM): 36.5%
- viability, T/C (second compound 0.00316 µM, first compound 10 µM): 25.3%
- viability, T/C (second compound 0.01 µM, first compound 0.0316 µM): 104%
- viability, T/C (second compound 0.01 µM, first compound 0.1 µM): 83.6%
- viability, T/C (second compound 0.01 µM, first compound 0.316 µM): 61.1%
- viability, T/C (second compound 0.01 µM, first compound 1 µM): 42.2%
- viability, T/C (second compound 0.01 µM, first compound 3.16 µM): 40.4%
- viability, T/C (second compound 0.01 µM, first compound 10 µM): 26.5%
- viability, T/C [7]: 96.5%
- viability, T/C [8]: 70.1%
- viability, T/C [9]: 58.9%
- viability, T/C [10]: 44.9%
- viability, T/C [11]: 38.5%
- viability, T/C [12]: 26%
- viability, T/C [13]: 85.6%
- viability, T/C [14]: 66.3%
- viability, T/C [15]: 68.8%
- viability, T/C [16]: 50.7%
- viability, T/C [17]: 40%
- viability, T/C [18]: 21.6%
- viability, T/C [19]: 85.9%
- viability, T/C [20]: 78.1%
- viability, T/C [21]: 55.1%
- viability, T/C [22]: 40.9%
- viability, T/C [23]: 37.5%
- viability, T/C [24]: 26.9%
- viability, T/C [25]: 87.9%
- viability, T/C [26]: 67.6%
- viability, T/C [27]: 60.5%
- viability, T/C [28]: 37.9%
- viability, T/C [29]: 41.3%
- viability, T/C [30]: 28.7%

Structure (SMILES): CCC(CC)c1cc(NC2CCC(N)C2)n2nccc2n1 (stereo unspecified)
- viability, T/C (compound 0.1 µM): 107% [middle of 4 runs]
- viability, T/C (compound 0.316 µM): 120% [middle of 4 runs]
- viability, T/C (compound 3.16 µM): 14% [middle of 4 runs]
- viability, T/C (compound 10 µM): 19.9% [middle of 4 runs]
- IC50 (curve of compound): 2.01 µM [middle of 4 runs]
